Laboratory results as given in article PMC8198871, “Suppression of Breast Cancer by Small Molecules That Block the Prolactin Receptor” (Cancers, 2021).

Key:
[1] = molecular target: T1, prolactin receptor (PRLR) (Homo sapiens, UniProt P16471); experiment: microscale thermophoresis; confirmed by isothermal titration calorimetry; type: binding
T1 construct: extracellular domain (ECD), purified recombinant
T1 sequence (P16471 25-234 limits assumed): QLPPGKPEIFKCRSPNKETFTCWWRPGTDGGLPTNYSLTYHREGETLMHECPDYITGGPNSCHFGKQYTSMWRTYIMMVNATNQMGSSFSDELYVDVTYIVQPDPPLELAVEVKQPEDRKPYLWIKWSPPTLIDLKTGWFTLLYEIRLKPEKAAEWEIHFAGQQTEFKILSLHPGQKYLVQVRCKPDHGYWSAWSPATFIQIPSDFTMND

[2] = molecular target: serotonin receptor 2A (HTR2A) (Homo sapiens, UniProt P28223); experiment: DiscoverX GPCR selectivity panel, multiple doses; type: cell-based
[3] = molecular target: T2, hypocretin receptor 1 (HCRTR1) (Homo sapiens, UniProt O43613); experiment: DiscoverX GPCR selectivity panel, multiple doses; type: cell-based
T2 sequence (O43613 1-425): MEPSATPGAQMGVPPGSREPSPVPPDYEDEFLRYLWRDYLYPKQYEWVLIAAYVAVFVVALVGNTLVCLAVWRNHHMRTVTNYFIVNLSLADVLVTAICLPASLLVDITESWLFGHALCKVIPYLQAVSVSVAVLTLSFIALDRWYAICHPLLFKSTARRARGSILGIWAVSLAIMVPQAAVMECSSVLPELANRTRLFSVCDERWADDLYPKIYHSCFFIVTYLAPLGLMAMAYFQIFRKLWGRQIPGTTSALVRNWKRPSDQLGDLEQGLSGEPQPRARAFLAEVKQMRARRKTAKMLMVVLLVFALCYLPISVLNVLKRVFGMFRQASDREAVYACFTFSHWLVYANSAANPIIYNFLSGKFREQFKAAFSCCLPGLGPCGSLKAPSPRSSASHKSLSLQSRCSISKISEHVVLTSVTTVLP

[4] = molecular target: T3, serotonin receptor 2C (HTR2C) (Homo sapiens, UniProt P28335); experiment: DiscoverX GPCR selectivity panel, multiple doses; type: cell-based
T3 sequence (P28335 33-458): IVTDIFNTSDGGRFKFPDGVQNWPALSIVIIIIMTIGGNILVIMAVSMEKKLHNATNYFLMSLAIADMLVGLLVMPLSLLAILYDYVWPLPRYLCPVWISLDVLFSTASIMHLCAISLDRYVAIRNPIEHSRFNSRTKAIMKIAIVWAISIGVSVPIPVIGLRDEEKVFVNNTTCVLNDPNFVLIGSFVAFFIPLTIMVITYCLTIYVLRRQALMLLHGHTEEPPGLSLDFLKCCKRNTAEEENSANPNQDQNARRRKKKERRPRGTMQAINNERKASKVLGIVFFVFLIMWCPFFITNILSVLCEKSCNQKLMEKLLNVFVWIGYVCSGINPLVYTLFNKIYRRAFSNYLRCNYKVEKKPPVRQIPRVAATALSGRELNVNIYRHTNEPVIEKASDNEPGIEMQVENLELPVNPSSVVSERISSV

Sequence of serotonin receptor 2A (HTR2A) (P28223 whole entry): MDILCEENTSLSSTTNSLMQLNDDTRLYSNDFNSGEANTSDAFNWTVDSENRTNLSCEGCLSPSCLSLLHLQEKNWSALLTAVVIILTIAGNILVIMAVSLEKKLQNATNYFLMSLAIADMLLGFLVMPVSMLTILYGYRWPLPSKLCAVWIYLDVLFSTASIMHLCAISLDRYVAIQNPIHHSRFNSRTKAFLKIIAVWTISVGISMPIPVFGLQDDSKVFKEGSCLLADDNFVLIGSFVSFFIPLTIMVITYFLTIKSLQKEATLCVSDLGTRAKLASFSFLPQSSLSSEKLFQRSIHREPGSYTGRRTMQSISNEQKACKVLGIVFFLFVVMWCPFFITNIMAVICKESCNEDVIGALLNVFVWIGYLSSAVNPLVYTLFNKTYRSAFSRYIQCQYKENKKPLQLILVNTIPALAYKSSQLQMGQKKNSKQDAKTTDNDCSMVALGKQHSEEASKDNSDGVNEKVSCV

- Kd [1]: 3.31 µM
- IC50 [2]: 2.39 µM
- IC50 [3]: 6.71 µM
- IC50 [4]: 3.48 µM
Compound: CCN(CC)c1ccc(/C=N/NC(=O)c2c(Cl)cnn2C)c(O)c1 [SMI-6]
